Several values for one entry are separate records, joined by “and”; a condition that tells them apart may be missing. Equal entries are not always repeated.
System: MCF7/TGL cells
Assay: metabolomic assay (polar metabolite profiling, mass spectrometry)
Format: cell-based, human
Protocol: Extraction and analysis were performed with the same parameters as the method disclosed in FIG. 7.
7 × 10^6 cells were seeded in 10-cm cell culture plates with DMEM containing 10% FBS, 0.2 mM L-glutamine and 1% penicillin/streptomycin. Additionally, MCF7/TGL/pQ was cultured in media containing 0.5 µgml^-1 puromycin and 25 mM HEPES. After 16 hours of incubation, metabolites were extracted from the cells using 80% methanol. The remaining steps were carried out by Weill Cornell Medicine Proteomics and Metabolomics Core Facility according to M. D. Goncalves et al., Proc Natl Acad Sci USA 115, E743-E752 (2018). All data analyses were done using MetaboAnalyst 4.0 (www.metaboanalyst.ca/).
To investigate whether 250 ppm CO mimics hypoxia, the HiF1α protein levels were examined in CO treated MCF7/TGL and MDA-MB-231/TGL cells. […] To determine whether 250 ppm CO affects metabolism, polar metabolites were profiled using two breast cancer cell lines, MCF7/TGL and MDA-MB-231/TGL (FIGS. 7-9).

[1] = MCF7/TGL cells, 250 ppm CO, 16 hours

## [C-]#[O+] [CO, Carbon monoxide]
HMDB00630, MCF7/TGL cells treated with CO, replicates CO 1-3
  Peak Height Cytosine: 153,235 and 158,066 and 214,404
HMDB00641, MCF7/TGL cells treated with CO, replicates CO 1-3
  Peak Height L-Glutamine: 2,010,884,000 and 2,067,120,000 and 2,186,859,000
HMDB00660, MCF7/TGL cells treated with CO, replicates CO 1-3
  Peak Height D-Fructose: 2,161,466 and 2,426,370 and 4,390,968
HMDB00671, MCF7/TGL cells treated with CO, replicates CO 1-3
  Peak Height Indolelactic acid: 168,415 and 166,030 and 323,966
HMDB00682, MCF7/TGL cells treated with CO, replicates CO 1-3
  Peak Height Indoxyl sulfate: 31,554 and 19,025 and 38,019
HMDB00684, MCF7/TGL cells treated with CO, replicates CO 1-3
  Peak Height L-Kynurenine: 186,534 and 218,684 and 386,445
HMDB00687, MCF7/TGL cells treated with CO, replicates CO 1-3
  Peak Height L-Leucine: 319,755,000 and 339,183,100 and 446,258,700
HMDB00696, MCF7/TGL cells treated with CO, replicates CO 1-3
  Peak Height L-Methionine: 110,122,300 and 114,069,500 and 202,567,100
HMDB00705, MCF7/TGL cells treated with CO, replicates CO 1-3
  Peak Height Hexanoylcarnirine: 309,788 and 384,626 and 554,943
HMDB00714, MCF7/TGL cells treated with CO, replicates CO 1-3
  Peak Height Hippuric acid: 41,839 and 33,037 and 50,895
HMDB00715, MCF7/TGL cells treated with CO, replicates CO 1-3
  Peak Height Kynurenic acid: 57,830 and 46,636 and 67,981
HMDB00744, MCF7/TGL cells treated with CO, replicates CO 1-3
  Peak Height Malic acid: 118,667,000 and 141,604,200 and 190,900,500
HMDB00766, MCF7/TGL cells treated with CO, replicates CO 1-3
  Peak Height N-Acetyl-L-alanine: 3,050,982 and 3,282,590 and 5,343,814
HMDB00779, MCF7/TGL cells treated with CO, replicates CO 1-3
  Peak Height Phenyllactic acid: 375,745 and 377,557 and 505,569
HMDB00807, MCF7/TGL cells treated with CO, replicates CO 1-3
  Peak Height 3-Phosphoglyceric acid: 830,372 and 1,313,918 and 2,225,910
HMDB00812, MCF7/TGL cells treated with CO, replicates CO 1-3
  Peak Height N-Acetyl-L-aspartic acid: 107,096,600 and 121,628,700 and 146,462,300
HMDB00821, MCF7/TGL cells treated with CO, replicates CO 1-3
  Peak Height Phenylacetylglycine: 1,455,001 and 1,300,695 and 2,222,377
HMDB00824, MCF7/TGL cells treated with CO, replicates CO 1-3
  Peak Height Propionylcarnitine: 88,247,270 and 88,089,220 and 114,107,300
HMDB00828, MCF7/TGL cells treated with CO, replicates CO 1-3
  Peak Height Ureidosuccinic acid: 967,259 and 2,115,336 and 2,977,458
HMDB00883, MCF7/TGL cells treated with CO, replicates CO 1-3
  Peak Height L-Valine: 166,887,800 and 164,029,200 and 219,042,800
HMDB00895, MCF7/TGL cells treated with CO, replicates CO 1-3
  Peak Height Acetylcholine: 79,843,420 and 75,982,720 and 87,382,500
HMDB00902, MCF7/TGL cells treated with CO, replicates CO 1-3
  Peak Height NAD: 6,156,942 and 7,187,370 and 12,756,100
HMDB00904, MCF7/TGL cells treated with CO, replicates CO 1-3
  Peak Height Citrulline: 9,044,262 and 10,234,370 and 14,264,050
HMDB00929, MCF7/TGL cells treated with CO, replicates CO 1-3
  Peak Height L-Tryptophan: 30,996,070 and 34,786,840 and 68,643,900
HMDB00935, MCF7/TGL cells treated with CO, replicates CO 1-3
  Peak Height Uridine diphosphate glucuronic acid: 726,138 and 548,546 and 770,082
HMDB00939, MCF7/TGL cells treated with CO, replicates CO 1-3
  Peak Height S-Adenosylhomocysteine: 56,652 and 145,088 and 413,677
HMDB00943, MCF7/TGL cells treated with CO, replicates CO 1-3
  Peak Height Threonic acid: 76,882,710 and 94,196,330 and 129,619,900
HMDB00960, MCF7/TGL cells treated with CO, replicates CO 1-3
  Peak Height dGDP: 686,954 and 539,654 and 784,042
HMDB00965, MCF7/TGL cells treated with CO, replicates CO 1-3
  Peak Height Hypotaurine: 4,796,295 and 5,519,371 and 5,943,089
HMDB01003, MCF7/TGL cells treated with CO, replicates CO 1-3
  Peak Height Adenosine phosphosulfate: 14,981 and 16,338
HMDB01031, MCF7/TGL cells treated with CO, replicates CO 1-3
  Peak Height Deoxyribose 5-phosphate: 19,019 and 34,976 and 30,540
HMDB01066, MCF7/TGL cells treated with CO, replicates CO 1-3
  Peak Height S-Lactoylglutathione: 397,298 and 293,636 and 484,692
HMDB01068, MCF7/TGL cells treated with CO, replicates CO 1-3
  Peak Height D-Sedoheptulose 7-phosphate: 151,546 and 165,071 and 234,010
HMDB01112, MCF7/TGL cells treated with CO, replicates CO 1-3
  Peak Height D-Glyceraldehyde 3-phosphate: 1,475,183 and 1,160,887 and 1,058,732
HMDB01138, MCF7/TGL cells treated with CO, replicates CO 1-3
  Peak Height N-Acetylglutamic acid: 567,078 and 897,146 and 1,371,040
HMDB01173, MCF7/TGL cells treated with CO, replicates CO 1-3
  Peak Height 5′-Methylthioadenosine: 269,714 and 419,042 and 1,274,477
HMDB01185, MCF7/TGL cells treated with CO, replicates CO 1-3
  Peak Height S-Adenosylmethionine: 9,310,209 and 12,590,700 and 17,427,170
HMDB01201, MCF7/TGL cells treated with CO, replicates CO 1-3
  Peak Height Guanosine diphosphate: 35,607 and 34,452 and 43,718
HMDB01209, MCF7/TGL cells treated with CO, replicates CO 1-3
  Peak Height Allantoic acid: 44,843 and 53,026 and 96,308
HMDB01227, MCF7/TGL cells treated with CO, replicates CO 1-3
  Peak Height 5-Thymidylic acid: 266,456 and 133,281 and 141,715
HMDB01254, MCF7/TGL cells treated with CO, replicates CO 1-3
  Peak Height Glucosamine 6-phosphate: 44,392 and 62,516 and 90,486
HMDB01273, MCF7/TGL cells treated with CO, replicates CO 1-3
  Peak Height Guanosine triphosphate: 84,003 and 60,453 and 112,154
HMDB01325, MCF7/TGL cells treated with CO, replicates CO 1-3
  Peak Height N6,N6,N6-Trimethyl-L-lysine: 4,594,085 and 5,317,512 and 7,697,279
HMDB01341, MCF7/TGL cells treated with CO, replicates CO 1-3
  Peak Height ADP: 902,793 and 705,422 and 1,082,377
HMDB01342, MCF7/TGL cells treated with CO, replicates CO 1-3
  Peak Height Thymidine 5′-triphosphate: 54,889 and 34,363 and 35,046
HMDB01367, MCF7/TGL cells treated with CO, replicates CO 1-3
  Peak Height N-Acetyl-glucosamine 1-phosphate: 464,872 and 467,412 and 595,300
HMDB01397, MCF7/TGL cells treated with CO, replicates CO 1-3
  Peak Height Guanosine monophosphate: 73,405 and 58,750 and 80,249
HMDB01401, MCF7/TGL cells treated with CO, replicates CO 1-3
  Peak Height Glucose 6-phosphate: 1,799,795 and 2,339,699 and 3,140,759
HMDB01406, MCF7/TGL cells treated with CO, replicates CO 1-3
  Peak Height Niacinamide: 1,738,434 and 1,604,153 and 3,615,850
HMDB01413, MCF7/TGL cells treated with CO, replicates CO 1-3
  Peak Height Citicoline: 1,054,917 and 1,269,775 and 2,126,892
HMDB01487, MCF7/TGL cells treated with CO, replicates CO 1-3
  Peak Height NADH: 81,979 and 73,214 and 61,204
HMDB01539, MCF7/TGL cells treated with CO, replicates CO 1-3
  Peak Height Asymmetric dimethylarginine: 2,485,123 and 2,893,325 and 4,095,202
HMDB01546, MCF7/TGL cells treated with CO, replicates CO 1-3
  Peak Height CDP: 49,666 and 36,830 and 44,004
HMDB01548, MCF7/TGL cells treated with CO, replicates CO 1-3
  Peak Height D-Ribose 5-phosphate: 523,976 and 578,358 and 695,562
HMDB01564, MCF7/TGL cells treated with CO, replicates CO 1-3
  Peak Height CDP-Ethanolamine: 229,328 and 262,826 and 313,255
HMDB01565, MCF7/TGL cells treated with CO, replicates CO 1-3
  Peak Height Phosphorylcholine: 826,434,500 and 950,902,100 and 1,062,045,000
HMDB01586, MCF7/TGL cells treated with CO, replicates CO 1-3
  Peak Height Glucose 1-phosphate: 194,892 and 220,042 and 348,617
HMDB01624, MCF7/TGL cells treated with CO, replicates CO 1-3
  Peak Height 2-Hydroxycaproic acid: 663,141 and 926,482 and 905,559
HMDB01721, MCF7/TGL cells treated with CO, replicates CO 1-3
  Peak Height DL-O-Phosphoserine: 256,439 and 305,155 and 440,561
HMDB01864, MCF7/TGL cells treated with CO, replicates CO 1-3
  Peak Height 2-Ketohexanoic acid: 10,109,740 and 13,290,500 and 25,544,760
HMDB01890, MCF7/TGL cells treated with CO, replicates CO 1-3
  Peak Height Acetylcysteine: 309,165 and 445,217 and 662,532
HMDB02005, MCF7/TGL cells treated with CO, replicates CO 1-3
  Peak Height Methionine sulfoxide: 1,119,307 and 1,490,306 and 2,521,401
HMDB02320, MCF7/TGL cells treated with CO, replicates CO 1-3
  Peak Height Imidazolelactic acid: 128,890 and 215,532 and 355,864
HMDB02820, MCF7/TGL cells treated with CO, replicates CO 1-3
  Peak Height Methylimidazoleacetic acid: 2,032,579 and 2,307,084 and 4,227,106
HMDB02994, MCF7/TGL cells treated with CO, replicates CO 1-3
  Peak Height Erythritol: 124,085 and 149,580 and 273,411
HMDB03337, MCF7/TGL cells treated with CO, replicates CO 1-3
  Peak Height Oxidized glutathione: 1,351,310 and 1,735,245 and 4,066,758
HMDB03349, MCF7/TGL cells treated with CO, replicates CO 1-3
  Peak Height L-Dihydroorotic acid: 52,713 and 82,695 and 121,047
HMDB03351, MCF7/TGL cells treated with CO, replicates CO 1-3
  Peak Height GDP-glucose: 30,304 and 39,328 and 68,617
HMDB03357, MCF7/TGL cells treated with CO, replicates CO 1-3
  Peak Height N-Acetylornithine: 364,451 and 403,207 and 622,448
HMDB03681, MCF7/TGL cells treated with CO, replicates CO 1-3
  Peak Height 4-Acetamidobutanoic acid: 550,530 and 718,720 and 878,912
HMDB06028, MCF7/TGL cells treated with CO, replicates CO 1-3
  Peak Height N-Acetylasparagine: 279,146 and 204,547 and 192,934
HMDB06029, MCF7/TGL cells treated with CO, replicates CO 1-3
  Peak Height N-Acetylglutamine: 233,588 and 221,551 and 457,769
HMDB06557, MCF7/TGL cells treated with CO, replicates CO 1-3
  Peak Height ADP-glucose: 51,484 and 47,964 and 81,136
HMDB11718, MCF7/TGL cells treated with CO, replicates CO 1-3
  Peak Height 4-Hydroxybenzaldehyde: 1,638,500 and 1,711,975 and 2,780,422
HMDB11745, MCF7/TGL cells treated with CO, replicates CO 1-3
  Peak Height N-Acetyl-L-methionine: 1,517,454 and 1,648,819 and 2,302,821
HMDB31818, MCF7/TGL cells treated with CO, replicates CO 1-3
  Peak Height D-2,3-Dihydroxypropanoic acid: 2,390,333 and 3,141,171 and 4,932,187
HMDB61658, MCF7/TGL cells treated with CO, replicates CO 1-3
  Peak Height 3-hydroxyhexadecanoic acid: 11,142 and 13,344 and 11,314
[1]
  citric acid and phosphoenolpyruvic acid: did not provide statistically significant results
  nine common metabolites (fumaric acid, L-Dihydroorotic acid, D-2-Hydroxyglutaric, malic acid, NAD, GDP-glucose, pyruvic acid, inosinic acid, oxoglutaric acid): significantly downregulated
  pyruvic acid, oxoglutaric acid, malic acid, and fumaric acid (TCA intermediates): significantly downregulated
  succinic acid: significantly downregulated
MCF7/TGL/pQ cells, 250 ppm carbon monoxide for 16 hours
  abundance of metabolites tested (metabolomics profiling): reduced the abundance of the majority of metabolites tested

— US20230346831A1, “METHODS FOR TREATING […] USING LOW DOSE CARBON MONOXIDE” (priority 2020, published 2023)
